Data from a melting point compilation (Tetko et al.; mined from patent text by program, amines drawn as free bases though some values may be those of a salt).

melting point | Structure (SMILES)
167 to 170 °C | CCS(=O)(=O)c1cc(OC)c(OC)c(C(=O)NCC2CCCN2CC2CC2)c1 (stereo not given)
202 to 204 °C | O=C(O)c1cccc2cc3ccccc3nc12
> 300 °C | COc1cc2[nH]c(=O)c(C(=O)O)nc2cc1-n1ccc(CNC(=O)Nc2ccc(C(=O)O)cc2)c1
115 to 119 °C | O=C(CCl)NC1CCCc2sccc21 (stereo not given)
172 to 174 °C | COc1ccc(-c2c(Cl)c(CNC(C)=O)nc3sc4c(c23)CCN(Cc2ccccc2)C4)cc1OC
123 °C | O=CNc1nc(C(=NOC(=O)C(Cl)Cl)C(=O)O)ns1
89 °C | COc1ccc(CN2C(=O)C(C)(c3cc(C(=O)N(C)CC(F)(F)F)ccc3Cl)c3cc(Cl)ccc32)c(OC)c1 (stereo not given)
197 to 198 °C | Nc1nc(=O)n(C2CC(O)C(CO)O2)cc1-c1ccccn1 (stereo not given)
211 to 224 °C | CNC(=O)c1cccc(F)c1Nc1nc(Nc2ccc3c(c2)N(CCOC)C(=O)CCC3)ncc1Br
165 to 166 °C | CCCC1=C(c2ccc(F)cc2)C(=NO)CC1
154 to 158 °C | Cc1c(C)c2c(c(C)c1N)CC(C)(CN1CCN(C(=O)c3ccc([N+](=O)[O-])cc3)CC1)O2 (stereo not given)
99 °C | COc1ccccc1-c1n[nH]c2ccccc12
204 to 205 °C | Cc1cccc2c(=O)nc(-c3cccc(C(=O)OC(C)(C)C)n3)sc12
215 to 216 °C | COc1cc2c(cc1OC)C(Cc1cc(I)c(I)c(I)c1)N(C(=O)C(F)(F)F)CC2 (stereo not given)
128 to 129 °C | Cn1c(=O)oc2c(OC3CCCCO3)cccc21 (stereo not given)
172 to 175 °C | COc1ccc2c(C(=S)N(C)CC(=O)N(C)C)cccc2c1C(F)(F)F
198 to 199 °C | COc1cc2c(cc1NC(=S)Nc1ccc([N+](=O)[O-])cc1)C(C)(C)OCC2(C)C
102 °C | Cc1ccc(-c2nccc3c(CC#N)cccc23)cc1
220 to 222 °C | O=C(Nc1ccccc1)c1ccc(CSc2ccc(O)cc2)cc1
57 to 60 °C | Cc1cccc(COc2cccc(OCc3cnc4ccccc4n3)c2)c1C(=O)O
200 to 203 °C | CC1(C)OC(=O)Nc2ccc(-c3cc(F)cc(-c4ccsc4)c3)cc21
225 to 229 °C | CN(Cc1ccc(NC(=O)C2=Cc3cc(OCc4cccnc4)ccc3S(=O)(=O)CC2)cc1)C1CCOCC1
257 to 259 °C | CC(=O)Nc1cc(-c2ccncc2)cc2nc(-c3ccc(C)o3)nn12

melting point | Structure (SMILES)
195 to 197 °C | Cc1c(C(=O)Nc2ccc(N3CCN(CCO)CC3)c(C#N)c2)cnn1-c1ccc(Cl)c(Cl)c1
104 to 107 °C | O=C(CCl)N1CCN(C(=O)CCl)CC1
165 to 167 °C | O=C(O)c1ccc(S(F)(F)(F)(F)F)cc1[N+](=O)[O-]
130 °C | Cn1ncnc1COc1nc2c(-c3ccc(F)cc3)nncn2c1-c1ccccc1
201 °C | N#Cc1ccc(-c2cc3ccccc3[nH]2)cc1
115 to 116 °C | CC(=O)N1CCCC(=O)c2c(Cl)cccc2CCC1=O
99 to 100 °C | Cc1c(NC(=O)CC(C)(C)C)cc2c(c1C)OC(C)(C)C2(O)CCc1ccccc1 (stereo not given)
192 to 193 °C | COc1cc(OC)nc(NC(=O)NS(=O)(=O)c2cc(N)ccc2C(=O)N(C)C)n1
250 to 251 °C | COc1cc2c(cc1O)CCN(c1cc(N)c3cc(OC)c(OC)cc3n1)C2
217 °C | COc1ccc(C2Sc3ccccc3NC(=O)C2CO)cc1 (stereo not given)
145 to 147 °C | Fc1ccc(-c2ccn(C3CCNC3)c2-c2ccncc2)cc1 (stereo not given)
68 to 70 °C | O=C=Nc1c(Br)cccc1Br
39 to 40 °C | CCCCCCCCCCc1ccc(CO)cc1
112 to 114 °C | CCCN1C(=O)COc2cc(F)c(N=c3sc(=S)n4n3CCCC4)cc21
> 82 °C | CCOC(=O)[C@H](CC(C)C)SC[C@H](O)[C@H](CC1CCCCC1)NC(=O)[C@H](Cc1c[nH]cn1)NC(=O)[C@H](Cc1ccccc1)NC(=O)OC(C)(C)C
100 to 101 °C | CS(=O)(=O)OCCC1c2ccccc2C(=O)N1c1ccccc1 (stereo not given)
170 to 173 °C | Cn1cc(C(=O)c2ccccc2)c2c(Nc3cccc(N)c3)ncnc21
295 °C | O=c1cc2c(n[nH]1)-c1ccccc1C2
132 to 134 °C | COC(=O)c1ccc(-c2nc(-c3cccc(OC(F)(F)F)c3)cs2)cc1
310 °C | CN(Cc1ccccc1)C1=N/C(=C\c2c[nH]c3ncc(Cl)cc23)C(=O)N1
78 to 79 °C | CCNC(=O)c1ccc2ccc(OC)cc2c1OC(C)C
131 to 133 °C | Fc1ccc2[nH]cc([C@H]3CC[C@H](NCc4ccccc4)CC3)c2c1
131 to 133 °C | COc1cc([N+](=O)[O-])ccc1N1CCN(CCCNc2c(C)c(=O)n(C)c(=O)n2C)CC1

melting point | Structure (SMILES)
170 °C | Nc1cc(CO)cc(S(N)(=O)=O)c1Oc1ccccc1
98 to 100 °C | CCC(C)(C)C(=O)Oc1cc2c(s1)CCN([C@H](C(=O)OC)c1ccccc1Cl)C2
250 °C | COc1ccc(-c2nc(N)ncc2-c2ccc(=O)[nH]n2)cc1F
192 to 194 °C | CCc1[nH]c(=O)n(-c2cc(C(=O)OC(C)C)c(Cl)cc2F)c(=O)c1C
78 to 80 °C | CS(=O)(=O)Nc1cc(OC[C@@H](O)CNC2CCN(c3ccc(C#N)cc3)CC2)ccc1O
136 to 137 °C | CCOC=C(C=C(C#N)C#N)CCc1ccc(C(=O)OC)cc1
217 to 219 °C | Cc1cc2c(cc1O)C(C)(C)CC1(CC(C)(C)c3cc(OCCCn4nc(CO)cc4C)c(C)cc3O1)O2 (stereo not given)
157 to 159 °C | Cc1cc(S(=O)(=O)c2ccc(N)cc2)cc(N(C)C)n1
128 °C | Cc1ccc(S(=O)(=O)OCCc2c(C)nc3cc(C)ccn3c2=O)cc1
190 to 203 °C | CCOC(=O)c1c(NC23CC4CC(CC(C4)C2)C3)n[nH]c1C
196 to 197 °C | COCCOc1cc2c(cc1-c1ccc(F)cc1)NC(=O)CC(c1cccc(-n3ccnc3)c1)=N2
215 to 216 °C | CCCN1C(=O)N2CCN=C2c2[nH]c(C3CCCC3)nc21
123 to 125 °C | OCC(O)Cc1nccn1CCCCc1ccc(OCc2coc(/C=C/c3c(F)cccc3F)n2)cc1 (stereo not given)
182 °C | CCCCc1ncc(C=O)n1Cc1ccc(C(=O)O)c2ccccc12
122 to 123 °C | Cc1ccc(-c2ncc(Cl)cc2-c2ccc(S(C)=O)cc2)cn1 (stereo not given)
73.5 to 75 °C | CCc1cn(C(C)C(=O)N(C)C)nc1-c1ccccc1 (stereo not given)
129 to 130 °C | Cn1nc(-c2c(F)cccc2Cl)nc1-c1sc(Cl)c(Cl)c1Cl
82 to 83 °C | CCOC(=O)C1=C2c3[nH]c4ccc(Cl)cc4c3CCN2CCC1
161 to 163 °C | COCC1CN(c2ccc(C3CCNCC3)cc2)C(=O)O1 (racemic)
177 °C | O=C(O)COc1ccc(C(=O)c2ccoc2)c2ccccc12
126 to 127 °C | CCCCCN1C(=O)C2(COc3cc4c(cc32)OCO4)c2cccnc21 (stereo not given)

Structure (SMILES) | melting point
CN(C)C1CCc2[nH]c3ccccc3c2C1 (stereo not given) | 138 °C
OCc1cccc(-c2cccc(-c3cn([C@H]4CN5CCC4CC5)nn3)c2)c1 | 201 °C
CCCN1C(=O)C(C)(C)N=C(c2ccccc2F)c2cc([N+](=O)[O-])cc(Cl)c21 | 178 to 179 °C
